Reference: ChEMBL document CHEMBL1759977, “Investigation of the mode of binding of a novel series of N-benzyl-4-heteroaryl-1-(phenylsulfonyl)piperazine-2-carboxamides to the hepatitis C virus polymerase” (Bioorg Med Chem Lett, 2011)
Calls of active or inactive are those of the source. The calls are words filed in the database; no cut-off is given here.

How the values were obtained:
Hepatitis C virus [1] = assay: Antiviral activity against Hepatitis C virus subtype 1b by replication assay; assay type: functional, organism-based, Hepacivirus hominis; conditions: genotype 1b
Hepatitis C virus [2] = assay: Antiviral activity against Hepatitis C virus subtype 1a by replication assay; assay type: functional, organism-based, Hepacivirus hominis
Hepatitis C virus [3] = assay: Binding affinity to HCV 1b NS5B polymerase; conditions: Hepatitis C virus subtype 1b
[4] = system: Hepatitis C virus subtype 1a; assay: Binding affinity to HCV 1a wild type NS5B polymerase

SMILES	EC50 (Hepatitis C virus [1]) [µM]	EC50 (Hepatitis C virus [2]) [µM]	Activity [4]	Activity (Hepatitis C virus [3])
CCc1ccc(S(=O)(=O)N2CCN(c3cc(OC)nc(OC)n3)CC2C(=O)NCc2ccc(OC)cc2)cc1 (racemic)	2	25		
COc1ccc(CNC(=O)C2CN(c3cc(OC)nc(OC)n3)CCN2S(=O)(=O)c2ccc(OC(F)(F)F)cc2)cc1 (racemic)	0.7	8.1		Active
COc1ccc(CNC(=O)C2CN(c3ccc(Cl)nn3)CCN2S(=O)(=O)c2ccc(OC(F)(F)F)cc2)cc1 (racemic)	0.7	2.2		Active

The next compounds have a lower EC50 (Hepatitis C virus [1]) than those just listed; values first:

EC50 (Hepatitis C virus [1]) [µM]	EC50 (Hepatitis C virus [2]) [µM]	Activity [4]	SMILES	Activity (Hepatitis C virus [3])
0.007	0.087		CC[C@H](C)NC(=O)c1ccc(N2CCN(S(=O)(=O)c3ccc(OC(F)(F)F)cc3)[C@@H](C(=O)NCc3ccc(OC(F)(F)F)cc3)C2)nn1	
0.009	0.169	Active	O=C(NC1CC1)c1ccc(N2CCN(S(=O)(=O)c3ccc(OC(F)(F)F)cc3)[C@@H](C(=O)NCc3ccc(OC(F)(F)F)cc3)C2)nn1	Active
